Like-named read-outs stand apart in the source and are kept apart here.
How the values were obtained:
[1] = previously published spectra, normalised; cited from earlier work
[2] = Spectral analysis: absorbance and fluorescence spectra; format: physicochemical; conditions: DNA binding buffer, emission 530 nm
Description: Absorbance spectra were obtained using a Perkin-Elmer Lambda 16 UV spectrometer and a 10 μM solution of agent dissolved in dichloromethane and measured in a 1 cm path length quartz-silica cuvette. Fluorescence spectra for a 0.8 ml solution of 20 μM DRAQ5 in a 1 cm path length semi-micro quartz silica cuvette were determined by exciting at 647 nm wavelength or monitoring emission at 670 nm wavelength. Fluorescence measurements were made on a Perkin Elmer LS50 spectrofluorometer with slit widths set at 10 nm. The spectrofluorometer was equipped with a red-sensitive photomultiplier tube (PMT; type R928; Hamamatsu Photonics KK, Japan). Data were accumulated for four scans for each condition and exported into a spreadsheet program to correct values for the buffer control and to determine emission maxima. DNA-DRAQ5 fluorescence was measured by the addition of microlitre volumes of concentrated calf thymus DNA solutions to the cuvette with mixing. Both agent and DNA were prepared in DNA binding buffer (0.05 M sodium phosphate, pH 6.2, 0.05 M NaCl, 0.001 M EDTA; 3). The spectra shown were corrected for the buffer background and not for the spectral sensitivity of the PMT. Rhodamine 123 spectra were generated in DNA binding buffer using either 488/5 nm excitation or monitoring emission at 530/5 nm. […]

[3] = test system: human B cell lymphoma cell line; assay: Dual laser flow cytometry of DRAQ5NO with Annexin V-FITC (Cytometer D); format: cell-based; conditions: 50 μM DRAQ5NO, 633 nm excitation, FL4-H
Source text: The system was a FACS Vantage cell sorter (Becton Dickinson Inc., Cowley, UK) incorporating a Coherent Enterprise II laser simultaneously emitting at multiline UV (350-360 nm range) and 488 nm wavelengths with the beams made non-colinear using dichroic separators. Beam-combining optics were used to align the UV beam with that emitted by a Spectra Physics 127-35 helium-neon laser (max 35 mW output) emitting at 633 nm with a temporal separation of about 25 μsec from that of the primary 488 nm beam. Forward light scatter, 90° light scatter and fluorescence emissions were collected for 1×10^4 cells using the forward light scatter parameter as the master signal from the primary 488 nm beam, while side scatter was collected through a 488/10 nm bandpass filter. The analysis optics were: i) primary beam-originating signals analysed at FL1 (FITC filter; barrier filter of 530/30 nm) after transmission at SP610 and SP560 dichroics, or at FL2 (barrier filters of 585/42 nm or 575/26 nm) after transmission at SP610 and reflection at SP560 dichroics, or at FL3 (barrier filter of LP715 nm) after reflection at a SP610 dichroic; ii) delayed beam-originating signals analysed at FL4 (barrier filter of LP695 nm) or at FL5 (barrier filter of DF424/44 nm) after transmission or reflection at a LP640 dichroic respectively. Forward and 90° light scatter, were analysed to exclude any cell debris. […]

In the case of fluorescein isothiocyanate [FITC], the Exλmax [1] is given as 490 nm.

rhodamine 123 showed an Exλmax [2] of 511 nm.

In the case of Texas Red, the Exλmax [1] is listed as 596 nm.

For `C[N+](C)([O-])CCNc1ccc(O)c2c1C(=O)c1c(O)ccc(NCC[N+](C)(C)[O-])c1C2=O` [DRAQ5N], the “level of DRAQ5NO staining in stage 1 populations (intact viable cells)” value [3] was “low level” and the “level of DRAQ5NO staining in stage 3 cells (late stage apoptotic/dead cells)” value [3] was “increased level”.
